According to patent publication US8236956B2, “Cyclopamine analogues and methods of use thereof” (Infinity Pharmaceuticals, Inc., priority 2004, dated 2012):

test system: psoriasis lesions; assay: not given; details: topical application; Tas et al., 2004 Dermatology 209: 126-131; cited from earlier work

Compound | effect on psoriasis lesions
CC1=C2C[C@H]3[C@@H](CC=C4C[C@@H](O)CC[C@@]43C)[C@@H]2CC[C@]12O[C@@H]1C[C@H](C)CN[C@H]1[C@H]2C [cyclopamine] | full or partial regression of the lesion

test system: Hedgehog pathway; assay: C3H10T1/2 differentiation assay (alkaline phosphatase), inhibition of the Hedgehog pathway in cell culture; format: cell-based; details: Mus musculus, C3H 10T1/2, read-out: Differentiation Assay EC50 (Approximate EC50 for Inhibition)
Text: Hedgehog pathway specific cancer cell killing effects may be ascertained using the following assay. C3H10T1/2 cells differentiate into osteoblasts when contacted with the sonic hedgehog peptide (Shh-N). Upon differentiation; these osteoblasts produce high levels of alkaline phosphatase (AP) which can be measured in an enzymatic assay (Nakamura et al., 1997 BBRC 237: 465). Compounds that block the differentiation of C3H10T1/2 into osteoblasts (a Shh dependent event) can therefore be identified by a reduction in AP production (van der Horst et al., 2003 Bone 33: 899). The assay details are described below. The results approximate (EC50 for inhibition) of the differentiation assay is shown below in Table 1.
Mouse embryonic mesoderm fibroblasts C3H10T1/2 cells (obtained from ATCC) were cultured in Basal MEM Media (Gibco/Invitrogen) supplemented with 10% heat inactivated FBS (Hyclone), 50 units/ml penicillin and 50 ug/ml streptomycin (Gibco/Invitrogen) at 37 C with 5% CO2 in air atmosphere.
C3H10T1/2 cells were plated in 96 wells with a density of 8×10^3 cells/well. Cells were grown to confluence (72 hrs). After sonic Hedgehog (250 ng/ml), (R&D Systems) and/or compound treatment, the cells were lysed in 110 µl of lysis buffer (50 mM Tris pH 7.4, 0.1% TritonX100), plates were sonicated and lysates spun through 0.2 um PVDF plates (Corning). 40 ul of lysates was assayed for AP activity in alkaline buffer solution (Sigma) containing 1 mg/ml p-Nitrophenyl Phosphate. After incubating for 30 min at 37 C, the plates were read on an Envision plate reader at 405 nm. Total protein was quantified with a BCA protein assay kit from Pierce according to manufacturer's instructions. AP activity was normalized against total protein.

Compound | EC50 [µM]
CC1=C2C[C@H]3[C@@H](CCC4=CC(=O)CC[C@@]43C)[C@@H]2CC[C@@]2(C1)O[C@@H]1C[C@H](C)CN(CCO)[C@H]1[C@H]2C [Compound 39] | > 0.5
CC1=C2C[C@H]3[C@@H](CC=C4C[C@@H](O)CC[C@@]43C)[C@@H]2CC[C@@]2(C1)O[C@@H]1C[C@H](C)CN(CCNC(=O)CNC(=O)CCc3ccccc3)[C@H]1[C@H]2C [Compound 30] | < 0.2
CC1=C2C[C@H]3[C@@H](CCC4=CC(=O)CC[C@@]43C)[C@@H]2CC[C@@]2(C1)O[C@@H]1C[C@H](C)CN(CCNC(=O)CCc3ccccc3)[C@H]1[C@H]2C [Compound 21] | < 0.2
C[C@@H]1CN[C@H]2[C@@H](C)[C@@]3(CC[C@H]4[C@@H]5CC=C6C[C@@H](O)CC[C@]6(C)[C@H]5CC45CC53C)O[C@@H]2C1 (some centres unmarked) [Compound 1] | > 0.5
CC1=C2C[C@H]3[C@@H](CC=C4C[C@@H](O)CC[C@@]43C)[C@@H]2CC[C@@]2(C1)O[C@@H]1C[C@H](C)CN(C)[C@H]1[C@H]2C [Compound 20] | > 0.5
C[C@@H]1CN[C@H]2[C@@H](C)[C@@]3(CC[C@H]4[C@@H]5CCC6=CC(=O)CC[C@]6(C)[C@H]5CC45CC53C)O[C@@H]2C1 (some centres unmarked) [Compound 11] | > 0.5
CC1=C2C[C@H]3[C@@H](CC=C4C[C@@H](O)CC[C@@]43C)[C@@H]2CC[C@@]2(C1)O[C@@H]1C[C@H](C)CN[C@H]1[C@H]2C [Compound 19] | 0.2 to 0.5
CC1=C2C[C@H]3[C@@H](CCC4=CC(=O)CC[C@@]43C)[C@@H]2CC[C@@]2(C1)O[C@@H]1C[C@H](C)CN(CCN(C)C)[C@H]1[C@H]2C [Compound 45] | 0.2 to 0.5

same assay, conditions: Mus musculus, C3H 10T1/2; C3H10T1/2 cells, sonic Hedgehog 250 ng/ml, AP activity normalized against total protein; approximate; read-out: Differentiation Assay EC50 (Approximate EC50 for Inhibition)

Compound | EC50 [µM]
COCCOCCOCCOCCN1C[C@@H](C)C[C@H]2O[C@]3(CC[C@@H]4C(=C(C)C3)C[C@H]3[C@H]4CCC4=CC(=O)CC[C@@]43C)[C@H](C)[C@@H]21 [Compound 31] | < 0.2
CC1=C2C[C@H]3[C@@H](CCC4=CC(=O)CC[C@@]43C)[C@@H]2CC[C@@]2(C1)O[C@@H]1C[C@H](C)CN(Cc3ccc(Oc4ccccc4)cc3)[C@H]1[C@H]2C [Compound 37] | > 0.5
CC1=C2C[C@H]3[C@@H](CCC4=CC(=O)CC[C@@]43C)[C@@H]2CC[C@@]2(C1)O[C@@H]1C[C@H](C)CN(CCNS(=O)(=O)CCc3ccccc3)[C@H]1[C@H]2C [Compound 24] | 0.2 to 0.5
CC1=C2C[C@H]3C(CC=C4C[C@@H](O)CC[C@@]43C)[C@@H]2CC[C@@]2(C1)O[C@@H]1C[C@H](C)CN(CCCl)[C@H]1[C@H]2C (some centres unmarked) [Compound 27] | > 0.5
C[C@H]1C[C@H]2O[C@]3(CC[C@H]4[C@@H]5CC=C6C[C@@H](O)CC[C@]6(C)[C@H]5CC45CC53C)[C@H](C)[C@@H]2N(CCNC(=O)CCCCCNC(=O)CCc2ccccc2)C1 (some centres unmarked) [Compound 4] | < 0.2
CC1=C2C[C@H]3[C@@H](CCC4=CC(=O)CC[C@@]43C)[C@@H]2CC[C@@]2(C1)O[C@@H]1C[C@H](C)CN(Cc3ccccc3)[C@H]1[C@H]2C [Compound 35] | < 0.2
CC1=C2C[C@H]3[C@@H](CCC4=CC(=O)CC[C@@]43C)[C@@H]2CC[C@@]2(C1)O[C@@H]1C[C@H](C)CN(CC(=O)NCCCc3ccccc3)[C@H]1[C@H]2C [Compound 47] | 0.2 to 0.5
CC1=C2C[C@H]3C(CCC4=CC(=O)CC[C@@]43C)[C@@H]2CC[C@@]2(C1)O[C@@H]1C[C@H](C)CN(CCCl)[C@H]1[C@H]2C (some centres unmarked) [Compound 28] | > 0.5
CC1=C2C[C@H]3[C@@H](CCC4=CC(=O)CC[C@@]43C)[C@@H]2CC[C@@]2(C1)O[C@@H]1C[C@H](C)CN(CCOCCOCc3ccccc3)[C@H]1[C@H]2C [Compound 43] | 0.2 to 0.5
COCCOCCN1C[C@@H](C)C[C@H]2O[C@]3(CC[C@@H]4C(=C(C)C3)C[C@H]3C4CCC4=CC(=O)CC[C@@]43C)[C@H](C)[C@@H]21 (some centres unmarked) [Compound 29] | < 0.2
CC1=C2C[C@H]3[C@@H](CCC4=CC(=O)CC[C@@]43C)[C@@H]2CC[C@@]2(C1)O[C@@H]1C[C@H](C)CN[C@H]1[C@H]2C [Compound 18] | < 0.2
COCCOCCOCCN1C[C@@H](C)C[C@H]2O[C@]3(CC[C@@H]4C(=C(C)C3)C[C@H]3[C@H]4CCC4=CC(=O)CC[C@@]43C)[C@H](C)[C@@H]21 [Compound 33] | < 0.2
C[C@H]1C[C@H]2O[C@]3(CC[C@H]4[C@@H]5CCC6=CC(=O)CC[C@]6(C)[C@H]5CC45CC53C)[C@H](C)[C@@H]2N(CCNC(=O)CCCCCNC(=O)CCc2ccccc2)C1 (some centres unmarked) [Compound 17] | < 0.2
COCCOCCN1C[C@@H](C)C[C@H]2O[C@]3(CC[C@@H]4C(=C(C)C3)C[C@H]3[C@H]4CCC4=CC(=O)CC[C@@]43C)[C@H](C)[C@@H]21 [Compound 41] | < 0.2
